Paper PMC3463587, “A Series of Beta-Carboline Derivatives Inhibit the Kinase Activity of PLKs” (PLoS ONE, 2012)
pIC50: −log10 of the molar value.

Columns and labels:
MRC5 cells [1] = experiment: FACS cell cycle analysis (PI), MRC5; assay type: cell-based, Human; conditions: 48 hr
Description: It is well documented that PLK1 is involved in multiple steps in mitosis, such as centrosome maturation and establishment of bipolar spindle. […] Therefore, the down-regulation of PLK1 would change the distribution of cells in different cell cycle stages. To test this possibility, fluorescence-activated cell sorter (FACS) analysis was used to analyze the DNA content of HeLa cells treated with the identified PLK1 inhibitors, DH281, DH285, and DH287. HeLa cells were first incubated in the absence and presence of these compounds at different concentrations (0, 0.12, 0.48 and 1.92 µM) for 48 hr. […] Treatment with a lower concentration of the compounds (0.12 and 0.48 µM) also led to an obvious increase of the cell population in G2/M phase (Figure 4A, Table 3). Moreover, the proportion of HeLa cells in G2/M phase increased over time after incubation in the presence of 0.8 µM of DH281, DH285 and DH287 (Figure 4B, Table 4). […] We also determined the cell cycle distribution of the non-cancer MRC5 cells after treatment with DH281 at different concentrations. […] It is also possible that inhibition of the kinase activity of the whole PLK family by beta-carboline compounds results in the defect in cell cycle progression.
Tumor cells were exposed to vehicle (0.1% DMSO) or compounds at 0, 0.12, 0.48, and 1.92 µM for 48 hr or 0.8 µM for 24, 48, and 72 hr; MRC5 cells were exposed to compounds at 0, 0.12, 0.48, and 1.92 µM for 48 hr. The floated and attached cells were treated by trypsinization and washed with cold PBS. The cells were then fixed with 70% (v/v) ethanol at 4°C overnight. The fixed cells were washed twice with PBS and incubated with 50 µg/mL RNase A (Sigma, USA) and 50 µg/mL propidium iodide (PI) (Sigma, USA) at 37°C for 30 min.

MRC5 cells [2] = experiment: FITC-Annexin V/PI apoptosis assay, MRC5; assay type: cell-based, Human; conditions: 48 hr
Text: Staining with Annexin V–FITC and propidium iodide (PI) is commonly used to distinguish apoptotic, necrotic, and dead cells. PI is impermeant to live cells and apoptotic cells at early stages, but it stains dead cells and apoptotic cells at late stages through its binding to the nucleic acids. Apoptotic cells in early or late stages are stained positively for Annexin V-FITC that binds to phosphotidylserine. We used FACS analysis to determine the proportion of HeLa cells positive for Annexin V-FITC (FITC), PI, or both. The HeLa cells with PI^−/PI^+ FITC^+ were counted as apoptotic cells (Figure 5). […] However, 16.19% (3.96+12.23) of HeLa cells became FITC positive after treatment with 1.05 µM DH281 for 48 hr. The treatment with 5.25 µM DH281 induced apoptosis among 89.6% (89.51+0.09) of HeLa cells (Table 5). […] In contrast to HeLa cells, the induction of apoptosis by DH281 was much less efficient in non-cancer MRC5 cells (Table 5). Therefore, we conclude that the treatment with compounds DH281, DH285 and DH287 induces substantial apoptosis in HeLa cells, but non-cancer MRC5 cells are much less sensitive to the treatment. The distinct apoptotic responses of HeLa and MRC5 cells to beta-carboline compounds could explain the selectivity of PLK1 inhibitors toward cancer cells.
HeLa cells were either treated with 0, 0.21, 1.05 and 5.25 µM of DH281, DH285 and DH287 for 48 hr, or treated with 1.21 µM compounds for 24, 48 and 72 hr, while MRC5 cells were exposed to compounds at 0, 0.21, 1.05, and 5.25 µM for 48 hr. The cultured cells were harvested, washed three times with PBS, and resuspended in 500 µl binding buffer (10 mM Hepes/sodium hydroxide (pH7.4), 140 mM sodium chloride, and 2.5 mM CaCl2). Then 5 µl FITC-labeled Annexin V (Zhongshan JinQiao Biotechnology Ltd., Beijing) was added and the cells were incubated in the dark for 10 min. We added 5 µl of propidium iodide (PI) (10 µg/ml in binding buffer) to each sample before flow cytometry analysis.

Aurora-B = Aurora-B (Homo sapiens, UniProt Q96GD4); experiment: In vitro kinase assay Aurora B; assay type: biochemical
Description: (§1) The inhibition of PLK1 kinase activity was assessed using the Cyclex PLK1 Assay/Inhibitor Screening Kit (MBL International Corporation, Japan). The kit includes anti-phospho-threonine polyclonal antibody (PPT-07) and peroxidase coupled anti-rabbit IgG antibody as a reporter in a 96-well ELSIA format. Compounds were used at the concentrations from 10^− ^3 to 10^2 µg/ml and the absorbance was determined at 450 nm. A similar protocol was used to determine the kinase inhibition for PLK2, PLK3, Aurora A and Aurora B. The kinase activity of CDK1/cyclinB and CDK2/cyclinE was analyzed in the presence of serially diluted inhibitors. For each reaction, 20 ng of recombinant kinase was used and […] casein from bovine milk (Sigma) was added as the kinase substrate. The kinase reaction buffer contains 8 mM MOPS pH7.0, 0.2 mM EDTA, 0.1 mg/ml histone H1, 10 mM and MgAcetace and [γ^− ^33P-ATP] (500 cpm/pmol). The reaction was initiated by adding the MgATP mix. After incubation for 40 minutes at room temperature, the reaction was stopped by the addition of 3% phosphoric acid solution. We spotted 10 µl of the reaction mixture onto a P30 filtermat and washed three times for 5 min with 75 mM phosphoric acid and once with methanol prior to drying and scintillation counting.

Aurora-A = target: T1, Aurora-A (Homo sapiens, UniProt O14965); experiment: In vitro kinase assay Aurora A; assay type: biochemical
T1 sequence (O14965 1-403): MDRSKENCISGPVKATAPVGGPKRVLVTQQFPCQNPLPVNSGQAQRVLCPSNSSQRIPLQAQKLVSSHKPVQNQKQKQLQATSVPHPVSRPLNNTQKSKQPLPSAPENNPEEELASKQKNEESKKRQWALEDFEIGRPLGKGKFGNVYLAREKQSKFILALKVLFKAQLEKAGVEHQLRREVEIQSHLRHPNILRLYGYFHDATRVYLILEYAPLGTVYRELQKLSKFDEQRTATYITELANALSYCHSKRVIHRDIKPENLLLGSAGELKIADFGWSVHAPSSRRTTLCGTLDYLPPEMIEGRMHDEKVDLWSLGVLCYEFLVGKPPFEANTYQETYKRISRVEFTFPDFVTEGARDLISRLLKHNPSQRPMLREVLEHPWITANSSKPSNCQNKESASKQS
Description: as §1

Aurora-B, sequence (Q96GD4 whole entry): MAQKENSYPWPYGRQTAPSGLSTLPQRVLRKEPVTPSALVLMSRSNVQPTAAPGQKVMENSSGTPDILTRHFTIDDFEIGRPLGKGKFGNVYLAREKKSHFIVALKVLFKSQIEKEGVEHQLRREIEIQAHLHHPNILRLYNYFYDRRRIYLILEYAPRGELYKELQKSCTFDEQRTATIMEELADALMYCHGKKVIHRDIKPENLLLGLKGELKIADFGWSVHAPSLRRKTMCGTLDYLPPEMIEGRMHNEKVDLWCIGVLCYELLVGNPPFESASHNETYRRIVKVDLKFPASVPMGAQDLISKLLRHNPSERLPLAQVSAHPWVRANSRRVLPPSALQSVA

Which “cells in G1” value (MRC5 cells [1]; MRC5, 0.12 µM) does the source give for Cc1c2c(cc[n+]1Cc1ccccc1)c1ccc(OCc3ccc(F)cc3)cc1n2CCCc1ccccc1 [DH281] here?
Its value is 75.3%.

And the “cells in G2 (G2/M)” value (MRC5 cells [1]; MRC5, 0.12 µM)?
The value was 15.5%.

And the “cells in S” value (MRC5 cells [1]; MRC5, 0.12 µM)?
Its value is 9.18%.

And the “cells in G1” value (MRC5 cells [1]; MRC5, 0.48 µM)?
Its value is 68.2%.

What about the “cells in G2 (G2/M)” value (MRC5 cells [1]; MRC5, 0.48 µM) of the same molecule?
Its value is 14.6%.

And the “cells in S” value (MRC5 cells [1]; MRC5, 0.48 µM)?
Its value is 17.3. %.

And the “cells in G1” value (MRC5 cells [1]; MRC5, 1.92 µM)?
The value was 59.3%.

And the “cells in S” value (MRC5 cells [1]; MRC5, 1.92 µM)?
The value was 25.6%.

And the “PI+ FITC+ (late apoptotic cells)” value (MRC5 cells [2]; MRC5, 0.21 µM)?
Its value is 5.07%.

And the “PI+ FITC− (dead cells)” value (MRC5 cells [2]; MRC5, 0.21 µM)?
Its value is 1.63%.

What about the “PI− FITC− (live cells)” value (MRC5 cells [2]; MRC5, 0.21 µM) of the same molecule?
The value was 92.4%.

And the “PI+ FITC+ (late apoptotic cells)” value (MRC5 cells [2]; MRC5, 1.05 µM)?
The value was 0.59%.

What about the “PI+ FITC− (dead cells)” value (MRC5 cells [2]; MRC5, 1.05 µM) of the same molecule?
The value was 0.01%.

What about the “PI− FITC+ (early apoptotic cells)” value (MRC5 cells [2]; MRC5, 1.05 µM) of the same molecule?
Its value is 13.3%.

What about the “PI− FITC− (live cells)” value (MRC5 cells [2]; MRC5, 1.05 µM) of the same molecule?
Its value is 86.1%.

What about the “PI+ FITC+ (late apoptotic cells)” value (MRC5 cells [2]; MRC5, 5.25 µM) of the same molecule?
Its value is 7.76%.

What about the “PI+ FITC− (dead cells)” value (MRC5 cells [2]; MRC5, 5.25 µM) of the same molecule?
The value was 10.5%.

And the “PI− FITC+ (early apoptotic cells)” value (MRC5 cells [2]; MRC5, 5.25 µM)?
Its value is 18.5%.

What about the “PI− FITC− (live cells)” value (MRC5 cells [2]; MRC5, 5.25 µM) of the same molecule?
The value was 63.2%.

What does the source list for Cc1c2c(cc[n+]1Cc1ccccc1)c1ccc(OCc3ccccc3)cc1n2Cc1ccccc1 [DH287]?
pIC50 (Aurora-B): 4.61; pIC50 (Aurora-A): 4.65
